Data from patent publication US8951340B2, “Water-insoluble coloring matter compound, ink using the water-insoluble coloring matter compound, thermal transfer recording sheet and resist composition for color filter” (Canon Kabushiki Kaisha, priority 2011, dated 2015).
Like-named read-outs stand apart in the source and are kept apart here.

Legend:
[1] = Evaluation of solubility of compound for solvent (30 mg in 0.7 mL, visually observed); assay type: physicochemical; settings: organic solvent or mixture, thermodynamic from solid, room temperature, visual
Description: 30 mg of each of water-insoluble coloring matter compounds (1), (4), (6), (8) to (10), (14), (15), (20), and (21) and comparative compounds (1) to (3) was dissolved at room temperature in 0.7 mL of toluene, 0.7 mL of methanol, 0.7 mL of ethyl acetate, and 0.7 mL of chloroform, respectively. These solutions were visually observed, and the solubility of the compound for the solvent was evaluated.
A: completely dissolved (solubility is very good)
B: slightly suspended (solubility is good)
C: not dissolved at all (solubility is bad)

[2] = Solubility in water of the compound at room temperature and at 60° C.; assay type: physicochemical; settings: mass percentage
Text: The water-insoluble coloring matter compound represented by the formula (1) according to the present invention has high affinity for an organic solvent. In the present invention, “water-insoluble” means that solubility in water is less than 1% in terms of mass percentage.

[3] = 30 mg in 0.7 mL chloroform, read-out: Solubility Chloroform
[4] = 30 mg in 0.7 mL ethyl acetate, read-out: Solubility Ethyl acetate
[5] = 30 mg in 0.7 mL methanol, read-out: Solubility Methanol
[6] = 30 mg in 0.7 mL toluene, read-out: Solubility Toluene

Row | SMILES | solubility [1, 3] [mg/mL] | solubility [1, 4] [mg/mL] | solubility [1, 5] [mg/mL] | solubility [1, 6] [mg/mL] | solubility in water ([2]; 60° C.) | solubility in water ([2]; room temperature)
1 | Cn1c(=O)cc2c3c(c(Nc4ccccc4)ccc31)C(=O)c1ccccc1-2 [(1)] | < 42.9 | < 42.9 | < 42.9 | < 42.9 |  | 
2 | Cc1ccc(Nc2ccc3c4c(cc(=O)n3C)-c3ccccc3C(=O)c24)cc1 [(2)] | < 42.9 | < 42.9 | < 42.9 | < 42.9 |  | 
3 | CCCCn1c(=O)c(C(=O)c2ccccc2)c2c3c(c(Nc4ccc(C)cc4)ccc31)C(=O)c1ccccc1-2 [(3)] | < 42.9 | < 42.9 | < 42.9 | < 42.9 |  | 
4 | CCCCC(CC)CNc1ccc2c3c1C(=O)c1ccccc1-c3c(C(C)=O)c(=O)n2CCCC (stereo not drawn) [Compound (1)] |  |  |  |  | less than 1% | less than 1%
5 | CCCCC(CC)CNc1ccc2c3c1C(=O)c1ccccc1-c3c(C(=O)c1ccccc1)c(=O)n2CCCC (stereo not drawn) [Compound (4)] |  |  |  |  | less than 1% | less than 1%
6 | CCCCC(CC)CNc1ccc2c3c1C(=O)c1ccccc1-c3c(C(=O)c1ccc(OC)cc1)c(=O)n2CCCC (stereo not drawn) [Compound (6)] |  |  |  |  | less than 1% | less than 1%
7 | CCCCC(CC)CNc1ccc2c3c1C(=O)c1ccccc1-c3c(C(=O)c1ccccc1)c(=O)n2CC(CC)CCCC (stereo not drawn) [Compound (8)] |  |  |  |  | less than 1% | less than 1%
8 | CCCCC(CC)CNc1ccc2c3c1C(=O)c1ccccc1-c3c(C(=O)OCC)c(=O)n2CC(CC)CCCC (stereo not drawn) [Compound (9)] |  |  |  |  | less than 1% | less than 1%
9 | CCCCOCCCNc1ccc2c3c1C(=O)c1ccccc1-c3c(C(=O)c1ccccc1)c(=O)n2CC(CC)CCCC (stereo not drawn) [Compound (10)] |  |  |  |  | less than 1% | less than 1%
10 | CCCCC(CC)CNc1ccc2c3c1C(=O)c1ccccc1-c3c(C(=O)c1ccccc1)c(=O)n2C (stereo not drawn) [Compound (14)] |  |  |  |  | less than 1% | less than 1%
11 | CCCCC(CC)Cn1c(=O)c(C(=O)c2ccccc2)c2c3c(c(NC4CCCCC4)ccc31)C(=O)c1ccccc1-2 (stereo not drawn) [Compound (15)] |  |  |  |  | less than 1% | less than 1%
12 | CCCCNc1ccc2c3c1C(=O)c1ccccc1-c3c(C(=O)c1ccccc1)c(=O)n2CCCC [Compound (21)] |  |  |  |  | less than 1% | less than 1%
